In patent US20240000811A1, “INOSITOL HEXAKISPHOSPHATE ANALOGUES FOR TREATMENT OF CALCIFICATION ASSOCIATED KIDNEY DISEASES” (INOSITEC AG, priority 2020, published 2024):

How the values were obtained:
[1] = test system: RPTEC/TERT 1 human proximal tubule cells; test: Imaging assay: CaP adhesion/deposition and cellular changes on RPTEC monolayers treated with 5/7 mM Ca/P; type: cell-based
Description: RPTEC/TERT 1 human proximal tubule cells (RPTEC) were cultured in T75 tissue culture flasks using ProxUp basal medium mixed with ProxUp supplements at 37° C. and 5% CO2 according to manufacturer's recommendations. Cells were used up to passage 30 and regularly tested for Mycoplasma infections. For experiments, RPTEC were cultured in 24-well plates at a seeding density of 150′000 cells/cm^2. Cell viability assessment and cell counting before seeding was performed using an automated cell counter (BioRad TC 20, Hercules, CA, USA).
For the comparison of selected IP6 analogues, ProxUp basal medium was prepared with the selected inhibitor and added to each well. Then, CaP precipitation was induced by direct addition of first, phosphate and second, calcium. Final concentrations of 7 mM phosphate and 5 mM calcium were used. Cells were incubated for 24 h at 37° C. and 5% CO2. Spiked medium was removed, and cells were washed twice with PBS before staining.
For staining, ProxUp basal medium was mixed with calcein (500 nM final concentration), EthD (6 μM final concentration), CellMask stain ([…]) and Hoechst 33342. Staining mixture was added to RPTEC and cells were incubated for 30 min in the dark at 37° C. and 5% CO2. Staining solution was removed, cells were washed with PBS once and ProxUp basal medium was added. Cells were immediately imaged after staining. Images were obtained by epifluorescence microscopy at 37° C., using a Leica CTR6000 microscope. For quantification 3 wells/condition were prepared and 3 images/well were taken. For preliminary adhesion experiments images were taken with a 10× objective, for the imaging assay 20× objective images were taken.
Multichannel images were saved as individual channel images in 8-bit tiff format. For analysis Hoechst channel images were thresholded using the triangle threshold. Touching nuclei of the binary image were further segmented using the watershed algorithm with the distance transform of the binary image as input and local maxima thereof as seeds.
For EthD channel images, high level of background noise was observed, potentially as a result of fluorescence of the CellMask stain bleeding through. […] A fixed minimum threshold was set at 60. Watershed segmentation similar to the Hoechst channel was performed to segment touching objects. For the calcein channel images adaptive thresholding by triangle thresholding achieved good detection of CaP deposits, which was validated by visual comparison to brightfield channel images. For compound experiments, an additional upper threshold was set to the minimum threshold of the pos.ctrl images for the respective experiment. Thereby an overly insensitive threshold in images with a high amount of CaP deposition was circumvented. The sum of foreground pixels of the binary image was used to calculate the total area of CaP deposits. The skimage label algorithm was used to label touching foreground regions.
To segment images to single cells the CellMask channel image was first binarized by adaptive thresholding, using a blocksize of 35, followed by median filtering. Binary erosion was performed to shrink the outlines. A version of watershed algorithm was used to segment the whole image into single cells. To this end, the distance transform of the binary erosion image was used as input image and seeds were set to the local maxima of the Hoechst channel image. While this protocol allowed for an approximation of single cell morphology, further improvements of both analytical and experimental staining procedure would be necessary to achieve more accurate results.
Additionally, texture features of calcein and CellMask channel images were extracted. Grey level co-occurrence matrices were calculated using one set offset of 5 pixel and an angle of 90°. Here, the use of larger offsets could improve the detection of changes in large-scale features, e.g. CaP clustering sites. […]

[2] = previous study (Kletzmayr et al. 2020); cited from earlier work
[3] = In-solution screening: CaP precipitation and aggregation in artificial renal tubular fluid (RTF); conditions: 9 mM phosphate, 8 mM calcium, 4 h, RT
Description: An artificial renal tubular fluid (RTF) with a final composition of 0.05 mM oxalate, 0.005 mM sulphate, 408 mM sodium, 424 mM chloride, 0.26 mM potassium, 4 mM magnesium and 0.2 mM citrate in double distilled water was prepared according to a literature report (Fasano, J. M. et al., Kidney Int. 59, 169-178. DOI: 10.1046/j.1523-1755.2001.00477.x, 2001). The solution was filtered with a 0.45-μm syringe filter. Twenty mM Bis-Tris buffer was added to the reported protocol to ensure pH stability throughout experiments and pH was set to 7.2. The artificial RTF was stored at room temperature for up to four months. Stock solutions of 0.25 M phosphate and 1 M calcium were prepared in double distilled water and were stored separately at −20° C.
Twenty-x final concentration phosphate, 20× final concentration calcium and 10× final concentration compound dilutions were prepared in RTF. Assay mixture consisting of 80% RTF, 10% compound dilution, 5% phosphate dilution and 5% calcium dilution was prepared in Eppendorf tubes as follows. RTF (320 μL) was mixed with 20 μL phosphate dilution (final concentration of 9 mM), 40 μL compound dilution and 20 μL calcium dilution (final concentration of 8 mM). The assay mixture was vortexed after adding each component and 380 μL of the mixture were immediately added to 8-well glass bottom slides and incubated for 4 hat RT. CaP precipitation was assessed using a Leica DM 6000B microscope (Leica Microsystems, Wetzlar, Germany) in brightfield mode. For quantification 3 wells/condition with 3-4 images/well were imaged with a 40× objective. The total area covered with CaP deposits in percentage of the field of view and the mean size of CaP aggregates were determined.
In a first step, the influence of selected IP6 analogues (FIG. 3) on CaP precipitation and growth was assessed in vitro using artificial renal tubular fluid (RTF) (Table 1). In a previous study, the inventors investigated CaP protein particle formation in serum. However, an important difference to cardiovascular calcification lies in the extremely low protein content of the renal tubular fluid vs. the high abundance of proteins in blood, which can stabilize amorphous particles. Two cut-offs were chosen for assessing efficacy. First, complete inhibition was defined as a >90% reduction of detected CaP precipitates compared to the control sample without compound.

[4] = 7 mM phosphate, 5 mM calcium, 24 h

SMILES: COCCOCCO[C@@H]1C(OP(=O)(O)O)[C@H](OCCOCCOC)[C@@H](OP(=O)(O)O)C(OP(=O)(O)O)[C@H]1OP(=O)(O)O (stereo partly shown) [(OEG2)2-IP4]
- concentration achieving complete inhibition of CaP adhesion [1, 4]: 50 µM
- concentration down to which CaP adhesion was drastically reduced [1, 4]: 12.5 µM
- single cell area compared to the positive ctrl ([1]; 6-50 μM compound, 5/7 mM Ca/P): dose-dependently reduced
- single cell solidity compared to the positive ctrl ([1]; 6-50 μM compound, 5/7 mM Ca/P): increased
- total cell count/field of view compared to the positive ctrl ([1]; 6-50 μM compound, 5/7 mM Ca/P): increased
- number of dead cells compared to the positive ctrl ([1]; 6-50 μM compound, 5/7 mM Ca/P, EthD staining): dose-dependently reduced
- image feature profile vs positive ctrl (+5/7 mM Ca/P) and negative ctrl ([1]; 6-50 μM compound, 24 h): dose-dependent reversal
- total CaP area compared to the positive ctrl ([1]; 6 and 13 μM compound, 5/7 mM Ca/P, calcein staining): reduction
- efficacy on CaOx crystallization in solution [2]: limited efficacy
- effect on CaP precipitation / crystallization (in words) [3]: did not further increase the inhibitory activity
